Experimental data published in US20080194732A1, “Optically transparent polymer with antibiofouling properties” (priority 2007, published 2008).

Assays:
[1] = Leaching rate of algaecides from PMMA substrates in water, by UV spectroscopy; assay type: physicochemical; conditions: for leach rate: deionized water, 35 days; for leaching into test tanks: after five months, up to the limit of the spectrometer
Method: The effective lifetimes of the antifoulant-containing coverglass materials were tested by studying the leaching rate of the algaecides from PMMA substrates in water. The UV absorption bands of Diuron (at 254 nm) and Irgarol® (at 234 nm) were used to detect their presence in aqueous solutions. To study the leaching rate, duplicate samples of the highest concentration of algaecide in PMMA (4% by weight for Diuron and 0.5% for Irgarol®; three samples each) were placed in separate closed containers of ultra-pure deionized water (18 MΩ purity). After 35 days, the concentration of algaecide that had leached into the water was determined by UV spectroscopy using a standard Beer-Lambert law relationship:
Where A is the absorbance of the compound, ε is the extinction coefficient associated with the compound, l is the cell path length, and C is the concentration of the compound. By establishing a suitable set of calibration curves, ε can be calculated from empirical results. A set of calibration curves for both Diuron and Irgarol® was established from 10^−3 M to 10^−7 M in aqueous solution. A Mineral Light Short Wave UV source was used to provide the input light, while the absorption of the samples was collected with the Ocean Optics S2000 previously discussed. Aqueous samples were placed into closed quartz cuvettes for analysis. For the UV measurements the Ocean Optics spectrometer was equipped with a UV transmissive fiber optic cable and spectra collected from 200 nm to 575 nm. Absorbance was measured at the previously mentioned values. A reference sample of ultra-pure deionized water was used for this study.
The study determined that the lower limit of the spectrometer was approximately 10^−5 M concentration for these algaecides. […] That compares favorably to the reported leach rate of 4.04 μg cm^−2 days^−1 reported for leaching of Irgarol® from marine paints.

[2] = Decomposition point temperature by thermal gravimetric analysis; assay type: physicochemical
Method: The decomposition point temperature, or the temperature at which a material burns or decomposes, of the antifoulants must be above the processing temperature of the polymer. As determined by thermal gravimetric analysis, the decomposition point temperatures are 210° C. for capsaicin, 208° C. for Diuron, and 196° C. for Irgarol® 1051. The processing temperatures for melt extrusion are: for PMMA, 125° C.; for CBDO terephthalates (Cycloshield®), 130° C., and for polycarbonate, 190° C. It is expected that the antibiofoulants will be entrained in the polymer matrices. This entrainment is a key to the antifouling properties of the coverglasses or windows as it is the chemical nature of the antibiofoulants that provides the antifouling properties. In a typical matrix with entrained compounds there will always be some of these compounds exposed at the surface. Further, depending on the nature of the matrix, there will also be some diffusion rate of the compounds throughout the material.

[3] = leaching from marine paints, reported value; cited from earlier work
Chlorella capsulata = assay: Algae growth on antifoulant-loaded PMMA samples suspended 35 days in a salt water aquarium, read by optical transmission; assay type: cell-based; conditions: 35 days in algae tank; for effect on algae growth: antifoulant in solvent-cast PMMA sheet
Method: To test the antifoulant properties of the capsaicin-loaded PMMA and the mixtures of algaecides and polymers, a marine environment was established. Tests were performed in a salt water environment as opposed to a freshwater environment due to the aggressive growth of salt water plants and animals. The supposition is that if the antifoulant-doped coverglass works in a salt water environment, it will work in a fresh water environment. Using a standard 5-gallon aquarium, the salt water environment was set up using a commercially available sea salt solution (INSTANT OCEAN®). The solution was prepared to have a specific gravity of 1.020-1.023, a pH of ˜8.3, and a water temperature of about 27° C. A small aliquot of Chlorella capsulata (a known aggressive biofouling algae) was obtained from the UTEX Culture Collection of Algae and grown in the aquarium. Growth of the algae was further enhanced using an algae growth promoter (KENT PRO-CULTURE). After four weeks of growth, a dense algae growth was present in the aquarium.
PMMA/capsaicin samples of varying capsaicin concentration were prepared as previously described. The samples to be tested were cut into 25×25 mm squares and suspended in the aquarium. To ensure that no location-dependent effects were incorporated into the study, the samples were rotated every few days. The aquarium lights and air system were left running at all times. The samples were left in place for 35 days.
After 35 days, the samples were removed from the tank and rinsed carefully with deionized water to remove any adhering salts. The algae coated samples were then tested for their optical transmission properties using the Ocean Optics SD2000 UV-Vis spectrometer. To properly hold and test the samples, samples wetted with a couple of drops of deionized water were placed in between two standard 1″×3″ microscope slides. […] In fact, algae grew better on the samples with a higher concentration of capsaicin.
Algae growth studies similar to that conducted for the capsaicin-loaded PMMA were then conducted for the Diuron/PMMA and Irgarol®/PMMA samples. […]

Row | Structure (SMILES) | leach rate ([1]; 0.5% Irgarol in PMMA, no absorption at 234 nm) [μg cm^−2 day^−1] | leaching into test tanks [1] | decomposition point temperature [2] [°C] | reported leach rate from marine paints [3] [μg cm^−2 days^−1] | effect on algae growth (Chlorella capsulata) | leach rate ([1]; 4% by weight Diuron in PMMA, no absorption at 254 nm) | loss of visible transmission after algae growth (Chlorella capsulata; PMMA/capsaicin samples of varying capsaicin concentration)
1 | CSc1nc(NC2CC2)nc(NC(C)(C)C)n1 [Irgarol®, N-(tert-butyl)-N′-cyclopropyl-6-(methylthio)-1,3,5-triazine-2,4-diamine] | < 1.81 | no evidence was found | 196 | 4.04 | – | – | –
2 | CN(C)C(=O)Nc1ccc(Cl)c(Cl)c1 [Diuron, 3-(3,4-dichlorophenyl)-1,1-dimethylurea] | – | no evidence was found | 208 | – | no sign of algae growth | below 1.67 μg cm^−2 days^−1 | –
3 | COc1cc(CNC(=O)CCCC/C=C/C(C)C)ccc1O [capsaicin] | – | – | 210 | – | no effect in decreasing algae growth | – | the greater the concentration of capsaicin, the greater was the loss of transmission
